In patent US12258342B2, “Class of DNA gyrase and/or topoisomerase IV inhibitors with activity against gram-positive and gram-negative bacteria” (Univerza v Ljubljani, priority 2018, dated 2025):
≈ marks a conversion by molar mass, not a printed value.

Experiments:
[1] = test system: S. aureus ATCC 29213; assay: Microbroth dilution MIC (CLSI); settings: Staphylococcus aureus, ATCC29213, read-out: MIC (μg/mL) S. aureus ATCC 29213
[2] = test system: E. coli ATCC 25922; assay: Microbroth dilution MIC (CLSI); settings: Escherichia coli, ATCC25922, read-out: MIC (μg/mL) E. coli ATCC 25922
[3] = test system: E. faecalis ATCC 29212; assay: Microbroth dilution MIC (CLSI); settings: Enterococcus faecalis, ATCC29212, read-out: MIC (μg/mL) E. faecalis ATCC 29212
[4] = biological target: E. coli DNA gyrase (Escherichia coli (strain K12), UniProt P0AES6); assay: DNA gyrase inhibition assay (Inspiralis, streptavidin-coated plates); assay type: biochemical
Method: Inhibitory activities for compounds of the present invention were determined on E. coli and S. aureus DNA gyrase and topoisomerase IV in an assay from Inspiralis on streptavidin-coated 96-well microtiter plates from Thermo scientific Pierce. […] After washing off the unbound oligonucleotide, the enzyme test was performed. […] Reaction solutions were incubated at 37° C. for 30 min. After that, the TF buffer (50 mM NaOAc with pH 5.0, 50 mM NaCl and 50 mM MgCl2) was added to terminate the enzymatic reaction. After additional incubation for 30 min at rt, during which biotin-oligonucleotide-plasmid triplex was formed, the unbound plasmid was washed off using TF buffer and SybrGOLD in T10 buffer (10 mM Tris HCl with pH 8.0 and 1 mM EDTA) was added. […] GraphPad Prism 6.0 software was used to calculate the IC50 values. The result is given as the average value of three independent measurements. […] Chemoth.

[5] = test system: E. faecium ATCC 35667; assay: Microbroth dilution MIC (CLSI); settings: Enterococcus faecium, ATCC35667, read-out: MIC (μg/mL) E. faecium ATCC 35667

| Compound | MIC [1] | MIC [2] | MIC [3] | IC50 [4] | MIC [5] |
| --- | --- | --- | --- | --- | --- |
| Cc1[nH]c(C(=O)Nc2nc3cc(C(=O)O)ccc3s2)c(Cl)c1Cl [Example 4, 2-(3,4-dichloro-5-methyl-1H-pyrrole-2-carboxamido)benzo[d]thiazole-5-carboxylic acid] | > 64 µg/mL | > 64 µg/mL | > 64 µg/mL | 830 ± 150 nM | > 64 µg/mL |
| O=C(O)c1ccc2nc(NC(=O)c3cc(Br)c(Br)[nH]3)sc2c1 [Example 2, 2-(4,5-dibromo-1H-pyrrole-2-carboxamido)benzo[d]thiazole-6-carboxylic acid] | > 64 µg/mL | > 64 µg/mL | 2.78 µg/mL (≈ 6.25 µM) | 12 ± 7 nM | 5.56 µg/mL (≈ 12.5 µM) |
| Cc1[nH]c(C(=O)N(Cc2ccccc2)c2nc3ccc(C(=O)O)cc3s2)c(Cl)c1Cl [Example 16, 2-(N-benzyl-3,4-dichloro-5-methyl-1H-pyrrole-2-carboxamido)benzo[d]thiazole-6-carboxylic acid] | ≤ 0.0312 µg/mL | 64 µg/mL (≈ 139 µM) | ≤ 0.0312 µg/mL | < 5 nM | 0.36 µg/mL (≈ 0.782 µM) |
| Cc1[nH]c(C(=O)Nc2nc3c(OCCN)cc(C(=O)O)cc3s2)c(Cl)c1Cl.Cl [Example 11, 2-((6-carboxy-2-(3,4-dichloro-5-methyl-1H-pyrrole-2-carboxamido)benzo[d]thiazol-4-yl)oxy)ethan-1-aminium chloride] | > 64 µg/mL | > 64 µg/mL | > 64 µg/mL | < 5 nM | > 64 µg/mL |
| O=C(NO)c1ccc2nc(NC(=O)c3cc(Br)c(Br)[nH]3)sc2c1 [Example 19, 2-(4,5-dibromo-1H-pyrrole-2-carboxamido)-N-hydroxybenzo[d]thiazole-6-carboxamide] | > 64 µg/mL | > 64 µg/mL | 64 µg/mL (≈ 139 µM) | 89 ± 20 nM | > 64 µg/mL |
| O=C(O)c1ccc2nc(NC(=O)c3cc(Cl)c(Cl)[nH]3)sc2c1 [Example 3, 2-(4,5-dichloro-1H-pyrrole-2-carboxamido)benzo[d]thiazole-6-carboxylic acid] | > 64 µg/mL | > 64 µg/mL | 8.9 µg/mL (≈ 25 µM) | 19 ± 1 nM | 17.8 µg/mL (≈ 50 µM) |
| O=C(OCc1cc(=O)c(O)c[nH]1)c1ccc2nc(NC(=O)c3cc(Br)c(Br)[nH]3)sc2c1 [Example 40, (5-hydroxy-4-oxo-1,4-dihydropyridin-2-yl)methyl 2-(4,5-dibromo-1H-pyrrole-2-carboxamido)benzo[d]thiazole-6-carboxylate] | > 64 µg/mL | > 64 µg/mL | – | 1700 ± 360 nM | > 64 µg/mL |
| Cc1[nH]c(C(=O)Nc2nc3ccc(-c4nnn[nH]4)cc3s2)c(Cl)c1Cl [Example 17, N-(6-(1H-tetrazol-5-yl)benzo[d]thiazol-2-yl)-3,4-dichloro-5-methyl-1H-pyrrole-2-carboxamide] | 16 µg/mL (≈ 40.6 µM) | > 64 µg/mL | 1 µg/mL (≈ 2.54 µM) | < 5 nM | 1.23 µg/mL (≈ 3.12 µM) |
| O=C(O)c1cc(O)c2nc(NC(=O)c3cc(Br)c(Br)[nH]3)sc2c1 [Example 6, 2-(4,5-dibromo-1H-pyrrole-2-carboxamido)-4-hydroxybenzo[d]thiazole-6-carboxylic acid] | > 64 µg/mL | > 64 µg/mL | 32 µg/mL (≈ 69.4 µM) | 46 ± 33 nM | > 64 µg/mL |
| Cc1[nH]c(C(=O)Nc2nc3ccc(C(N)=O)cc3s2)c(Cl)c1Cl [Example 18, 2-(3,4-dichloro-5-methyl-1H-pyrrole-2-carboxamido)benzo[d]thiazole-6-carboxamide] | 1.16 µg/mL (≈ 3.14 µM) | > 64 µg/mL | > 64 µg/mL | 11 ± 2 nM | > 64 µg/mL |
| Cc1[nH]c(C(=O)Nc2nc3ccc(C(=O)NO)cc3s2)c(Cl)c1Cl [Example 20, 2-(3,4-dichloro-5-methyl-1H-pyrrole-2-carboxamido)-N-hydroxybenzo[d]thiazole-6-carboxamide] | 64 µg/mL (≈ 166 µM) | > 64 µg/mL | 0.5 µg/mL (≈ 1.3 µM) | 280 ± 10 nM | 38.5 µg/mL (≈ 100 µM) |
| Cc1[nH]c(C(=O)Nc2nc3c(F)cc(C(=O)O)cc3s2)c(Cl)c1Cl [Example 5, 2-(3,4-dichloro-5-methyl-1H-pyrrole-2-carboxamido)-4-fluorobenzo[d]thiazole-6-carboxylic acid] | 1 µg/mL (≈ 2.58 µM) | 16 µg/mL (≈ 41.2 µM) | 0.0625 µg/mL (≈ 0.161 µM) | < 5 nM | 0.61 µg/mL (≈ 1.57 µM) |
| O=C(O)CCNC(=O)c1ccc2nc(NC(=O)c3cc(Br)c(Br)[nH]3)sc2c1 [Example 21, 3-(2-(4,5-dibromo-1H-pyrrole-2-carboxamido)benzo[d]thiazole-6-carboxamido)propanoic acid] | > 64 µg/mL | > 64 µg/mL | > 64 µg/mL | 12 ± 5 nM | > 64 µg/mL |
| COC(=O)c1cc(N2CC[C@H](NC(=O)OC(C)(C)C)C2)c2nc(NC(=O)c3[nH]c(C)c(Cl)c3Cl)sc2c1 [Example 33, methyl (S)-4-(3-((tert-butoxycarbonyl)amino)pyrrolidin-1-yl)-2-(3,4-dichloro-5-methyl-1H-pyrrole-2-carboxamido)benzo[d]thiazole-6-carboxylate] | ≥ 32 µg/mL | ≥ 32 µg/mL | ≥ 32 µg/mL | > 10000 nM | – |
| O=C(OCc1cc(=O)c(O)co1)c1ccc2nc(NC(=O)c3cc(Br)c(Br)[nH]3)sc2c1 [Example 39, (5-hydroxy-4-oxo-4H-pyran-2-yl)methyl 2-(4,5-dibromo-1H-pyrrole-2-carboxamido)benzo[d]thiazole-6-carboxylate] | > 64 µg/mL | > 64 µg/mL | – | 1400 ± 20 nM | > 64 µg/mL |
| Cc1[nH]c(C(=O)Nc2nc3ccc(C(=O)O)c(Cl)c3s2)c(Cl)c1Cl [Example 14, 7-chloro-2-(3,4-dichloro-5-methyl-1H-pyrrole-2-carboxamido)benzo[d]thiazole-6-carboxylic acid] | > 64 µg/mL | > 64 µg/mL | > 64 µg/mL | 310 ± 30 nM | > 64 µg/mL |
| Cc1[nH]c(C(=O)Nc2nc3cc(O)c(C(=O)O)cc3s2)c(Cl)c1Cl [Example 13, 2-(3,4-dichloro-5-methyl-1H-pyrrole-2-carboxamido)-5-hydroxybenzo[d]thiazole-6-carboxylic acid] | 16 µg/mL (≈ 41.4 µM) | > 64 µg/mL | 1 µg/mL (≈ 2.59 µM) | < 5 nM | 1.21 µg/mL (≈ 3.13 µM) |
| Cc1[nH]c(C(=O)Nc2nc3ccc(C(=O)NCC#N)cc3s2)c(Cl)c1Cl [Example 26, N-(cyanomethyl)-2-(3,4-dichloro-5-methyl-1H-pyrrole-2-carboxamido)benzo[d]thiazole-6-carboxamide] | > 64 µg/mL | > 64 µg/mL | > 64 µg/mL | 16 ± 4 nM | – |
| O=C(O)c1ccc2nc(N(Cc3ccccc3)C(=O)c3cc(Br)c(Br)[nH]3)sc2c1 [Example 15, 2-(N-benzyl-4,5-dibromo-1H-pyrrole-2-carboxamido)benzo[d]thiazole-6-carboxylic acid] | 0.42 µg/mL (≈ 0.785 µM) | > 64 µg/mL | 0.21 µg/mL (≈ 0.392 µM) | 5.1 ± 1.3 nM | 0.83 µg/mL (≈ 1.55 µM) |
| Cc1[nH]c(C(=O)Nc2nc3ccc(C(=O)NCCC(=O)O)cc3s2)c(Cl)c1Cl [Example 22, 3-(2-(3,4-dichloro-5-methyl-1H-pyrrole-2-carboxamido)benzo[d]thiazole-6-carboxamido)propanoic acid] | 32 µg/mL (≈ 72.5 µM) | > 64 µg/mL | 2 µg/mL (≈ 4.53 µM) | 7 ± 0.9 nM | 5.52 µg/mL (≈ 12.5 µM) |
| Cc1[nH]c(C(=O)Nc2nc3c(N4CC[C@H](N)C4)cc(C(=O)O)cc3s2)c(Cl)c1Cl.Cl [Example 36, (S)-1-(6-carboxy-2-(3,4-dichloro-5-methyl-1H-pyrrole-2-carboxamido)benzo[d]thiazol-4-yl)pyrrolidin-3-aminium chloride] | 4 µg/mL | ≥ 32 µg/mL | 0.5 µg/mL | < 5 nM | – |
| Cc1[nH]c(C(=O)Nc2nc3c(O)cc(C(=O)O)cc3s2)c(Cl)c1Cl [Example 7, 2-(3,4-dichloro-5-methyl-1H-pyrrole-2-carboxamido)-4-hydroxybenzo[d]thiazole-6-carboxylic acid] | 16 µg/mL (≈ 41.4 µM) | > 64 µg/mL | 2 µg/mL (≈ 5.18 µM) | < 5 nM | 1.21 µg/mL (≈ 3.13 µM) |
| COc1cc(C(=O)O)cc2sc(NC(=O)c3[nH]c(C)c(Cl)c3Cl)nc12 [Example 8, 2-(3,4-dichloro-5-methyl-1H-pyrrole-2-carboxamido)-4-methoxybenzo[d]thiazole-6-carboxylic acid] | 2 µg/mL (≈ 5 µM) | 64 µg/mL (≈ 160 µM) | 0.25 µg/mL (≈ 0.625 µM) | 7.6 ± 3.4 nM | 1.25 µg/mL (≈ 3.12 µM) |
